According to paper PMC6308099, “Suramin, screened from an approved drug library, inhibits HuR functions and attenuates malignant phenotype of oral cancer cells” (Cancer Medicine, 2018):

Molecular target: T1, HuR (Homo sapiens, UniProt Q15717)
T1 construct: gene ELAVL1; full-length HuR (326 residues)
Assay: SPR steady state (Biacore T200, immobilized HuR); supported by concentration-dependent positive DSF shift
Type: binding

T1 sequence (Q15717 whole entry): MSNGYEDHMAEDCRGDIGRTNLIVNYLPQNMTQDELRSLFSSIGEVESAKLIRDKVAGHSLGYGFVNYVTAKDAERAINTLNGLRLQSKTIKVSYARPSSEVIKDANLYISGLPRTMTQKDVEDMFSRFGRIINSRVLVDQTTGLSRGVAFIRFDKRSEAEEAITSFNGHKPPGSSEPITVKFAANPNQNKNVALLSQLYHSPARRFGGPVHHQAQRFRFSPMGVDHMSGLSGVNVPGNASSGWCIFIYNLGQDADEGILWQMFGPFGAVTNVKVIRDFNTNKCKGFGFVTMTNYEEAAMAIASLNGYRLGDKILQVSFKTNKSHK

Q: How did the Kd turn out when `Cc1ccc(C(=O)Nc2ccc(S(=O)(=O)O)c3cc(S(=O)(=O)O)cc(S(=O)(=O)O)c23)cc1NC(=O)c1cccc(NC(=O)Nc2cccc(C(=O)Nc3cc(C(=O)Nc4ccc(S(=O)(=O)O)c5cc(S(=O)(=O)O)cc(S(=O)(=O)O)c45)ccc3C)c2)c1` [suramin] was run?
A: 240 µM
